# Data reported in paper PMC10799292, “The Role of β-Defensin 1 Against Porphyromonas gingivalis Lipopolysaccharide-Mediated Inflammation in the THP-1 Cell Line” (Cureus, 2023).
# No end group written: not given here.
# Assays:
# Type in all cases: cell-based, human
# THP-1 cells [1] = assay: Intracellular ROS generation, DCFDA assay; conditions: β-defensin 1 22.62 ng/mL 24 h after Pg-LPS 1 µg/mL 1 h; DCFDA 30 min, ex 470 nm, em 635 nm; untreated control 2379
# Description: Untreated control and Pg-LPS treated wells were also maintained. The cells were washed with PBS, and 50 µl of Dichlorodihydrofluorescein diacetate (DCFDA) was added, followed by incubation for 30 minutes. After incubation, excess dye was removed with PBS, and fluorescence was observed using a fluorescent microscope (Olympus CKX41 with Optika Pro5 CCD camera) and quantified with a fluorimeter at 470 nm excitation and emission at […] (Qubit 3.0, Life Technologies, USA), displaying the results in arbitrary units (AU).
# The effect of β-defensin 1 on ROS generation in THP-1 cells stimulated with Pg-LPS was studied. DCFDA, a fluorogenic dye, measures hydroxyl, peroxyl, and other ROS activities within the cell. After entering the cell, DCFDA is deacetylated by cellular esterases into a non-fluorescent compound. This nonfluorescent chemical is then oxidized by ROS into […] (DCF), which, upon excitation with a blue filter, emits green fluorescence. When THP-1 cells were stimulated with Pg-LPS, there was a considerable increase in fluorescence, which decreased upon treatment with β-defensin 1, as shown in Figure 7 and Table 2.
# [2] = system: Inducible nitric oxide synthase; assay: Inducible nitric oxide synthase inhibition in lysate of Pg-LPS stimulated THP-1 cells; conditions: for Inducible nitric oxide synthase Percentage inhibition Average / Inducible nitric oxide synthase Percentage inhibition 1 / Inducible nitric oxide synthase Percentage inhibition 2: Pg-LPS 1 µg/mL, 24 h; for Inducible nitric oxide synthase Percentage inhibition Average: mean of duplicates; for Inducible nitric oxide synthase Percentage inhibition 1: replicate 1; for Inducible nitric oxide synthase Percentage inhibition 2: replicate 2
# Description: For inducing differentiation of THP-1 cells into macrophages, the cell line was premixed with 25 ng/mL PMA and incubated for 48 hours. After incubation, 5x10^4 cells were activated with Pg-LPS (LPS: 1 µg/mL) for one hour. Pg-LPS stimulated cells were exposed to different concentrations (6.25, 12.5, and 25 ng/mL) of β-defensin 1 and incubated for 24 hours. After incubation, the following anti-inflammatory assays were conducted utilizing the cell lysate.
# Nitric oxide synthase was measured using the method reported by Salter et al.. The cell lysate was homogenized in 2 ml of 4-(2-hydroxyethyl)-1-piperazineethanesulfonic acid (HEPES) buffer. The assay system contained 0.1 mL of 2 µmol/L L-Arginine, 0.1 mL of 4 µmol/L manganese chloride, 0.1 mL of 10 mmol/L 30 µg dithiothreitol (DTT), 0.1 mL of 1 mmol/L NADPH, 0.1 mL of 4 µmol/L tetrahydropterin, 0.1 mL of 10µmol/L oxygenated hemoglobin, and 0.1 mL of cell lysate. Enzyme activity was measured by recording an increase in absorbance at 401 nm, and the following equation was used: […]
# [3] = system: THP-1 differentiated macrophage cell line; assay: Cytotoxicity evaluation of β-defensin 1 by MTT method; conditions: 24 h, 12.5-200 ng/mL
# Description: The THP-1 cell line was cultured in DMEM and supplemented with 10% FBS, sodium bicarbonate, L-glutamine, and an antibiotic solution containing penicillin (100 U/mL), amphotericin B (2.5 µg/mL), and streptomycin (100 µg/mL). The cells were maintained in a 5% humidified CO2 incubator (NBS Eppendorf, Germany) at 37°C. To induce differentiation into macrophages, the THP-1 cell line was treated with 25 ng/mL phorbol 12-myristate 13-acetate (PMA) (cat. 91585, Sigma-Aldrich, USA) and incubated for 48 hours. Following incubation, the cells were seeded in a 96-well culture plate at a density of 5x10^4 cells/well and incubated for 24 hours in a humidified 5% CO2 incubator at 37°C.
# Inverted phase contrast microscopy (IPCM) using an Olympus CKX41 microscope (Olympus, Japan) equipped with an Optika Pro5 CCD camera (Optika, Italy) was utilized to directly observe the cells. Cell viability was determined using the MTT (3-(4,5-Dimethylthiazol-2-yl)-2,5-diphenyltetrazolium bromide) assay (Sigma, M-5655). […] The absorbance of this colored solution can be quantified by measuring at approximately 570 nm using a spectrophotometer.
# The whole plate was analyzed under a microscope with an IPCM, and the results were photographed. […] The purple formazan crystals were dissolved in dimethyl sulfoxide (DMSO) and the absorbance (OD) was measured at 570 nm using a microplate reader. […]
# THP-1 cells [4] = assay: Apoptosis by flow cytometry (Annexin V & Dead Cell); conditions: β-defensin 1 22.62 ng/mL 24 h after Pg-LPS 1 µg/mL; untreated control 87.25%
# Description: Untreated control and Pg-LPS treated wells were also maintained. To the tubes, 100 μL of the Muse™ Annexin V & Dead Cell Reagents were added separately. The tubes were completely mixed by pipetting up and down or spinning at a medium speed for three to five seconds, followed by 20 minutes of incubation in the dark at room temperature. The cells were examined with a Flow Cytometer, gated against untreated control cells, and evaluated for apoptosis with the Muse FCS 3.0 software.
# The Muse Annexin V & Dead Cell Kit is a method to analyze cells in various stages of apoptosis, where fluorescently labeled Annexin V binds to phosphatidylserine (PS), which translocates to the outer surface of the cell membrane upon the onset of apoptosis. 7-AAD is excluded from live and healthy cells and permeates late-stage apoptotic and dead cells. […] The result is depicted in Figure 9.
substance,measurement,setting,value
"β-defensin 1: β-Defensin 1 peptide was purchased from ThermoFisher Scientific, USA; cationic antimicrobial peptide (DHYNCVSSGGQCLYSACPIFTKIQGTCYRGKAKCCK; ends and bridges not checked; cysteine pairing not given here; UniProt P60022 33-68, looked up)","ROS generation, Fluorescence intensity",THP-1 cells [1],5006.24 AU
same,Inducible nitric oxide synthase Percentage inhibition Average,[2]; 6.25 ng/mL,19.08%
same,Inducible nitric oxide synthase Percentage inhibition 1,[2]; 6.25 ng/mL,18.99%
same,Inducible nitric oxide synthase Percentage inhibition 2,[2]; 6.25 ng/mL,19.17%
same,Inducible nitric oxide synthase Percentage inhibition Average,[2]; 12.5 ng/mL,34.275%
same,Inducible nitric oxide synthase Percentage inhibition 1,[2]; 12.5 ng/mL,34.63%
same,Inducible nitric oxide synthase Percentage inhibition 2,[2]; 12.5 ng/mL,33.92%
same,Inducible nitric oxide synthase Percentage inhibition Average,[2]; 25 ng/mL,50.135%
same,Inducible nitric oxide synthase Percentage inhibition 1,[2]; 25 ng/mL,50.27%
same,Inducible nitric oxide synthase Percentage inhibition 2,[2]; 25 ng/mL,50%
same,inducible nitric oxide synthase percentage inhibition (in words),"[2]; 6.25, 12.5, and 25 ng/mL, Pg-LPS stimulated",increased in a concentration-dependent manner
same,cytotoxicity (in words),[3],dose-dependent cytotoxicity
same,live cells,THP-1 cells [4],77.35%
